This note sets out measurements from ChEMBL document CHEMBL1201862, “PubChem BioAssay data set” (2004).

Among the test systems are M14; OVCAR-5; NCI-H460; SNB-78; KM-20L2; SNB-19; SNB-75; KM12; HCT-116; SK-MEL-5; NCI-H23; CCRF-CEM; A498; OVCAR-3; COLO 205; MDA-MB-231; BT-549; NCI/ADR-RES; MCF7; DU-145.
What all share (test): NCI anticancer screen, dose series, 48 h

Each structure is given as a SMILES string.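 In this assay, cells in 96-well plates receive the compound at five concentrations for 48 hours. Endpoints are linearly interpolated between the surrounding concentrations. Here, GI50 denotes the concentration required for 50% inhibition of growth.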 Active and inactive are the calls of the source. Cut-off read from the data, not from the text of the source: active = GI50 up to about 1.1 µM and inactive = higher.

In the case of `O=C(NC1CCCCCC1)C1C(=O)N(C2CCCCCC2)C(=O)/C1=N\O` (stereo not given), the GI50 with M14 was 32.1 µM (inactive); in the experiment with OVCAR-5, 50.8 µM (inactive); with NCI-H460, 35.7 µM (inactive); with SNB-78, 34.3 µM (inactive); with KM-20L2, 23.1 µM (inactive); in the experiment on SNB-19, 35.2 µM (inactive). In addition, the GI50 is 26.6 µM (inactive) in the experiment on SNB-75; 37.1 µM (inactive) in the experiment on KM12; 17.3 µM (inactive) with HCT-116; 36.1 µM (inactive) in the experiment with SK-MEL-5; 26.5 µM (inactive) in the experiment with NCI-H23; 27.2 µM (inactive) in the experiment with CCRF-CEM. In addition, the values for the GI50 with A498, in the experiment with OVCAR-3 and in the experiment on COLO 205 were 32.9 µM (inactive), 17.6 µM (inactive) and 17.3 µM (inactive), respectively.

Take `O=[N+]([O-])c1cc(/C=N\NS(=O)(=O)c2ccc(Cl)cc2)c(O)c([N+](=O)[O-])c1`: the GI50 in the experiment on M14 is 32.4 µM (inactive); with OVCAR-5 it was > 100 µM (inactive); in the experiment on NCI-H460 it was 21 µM (inactive); in the experiment with SNB-78 it was 38.1 µM (inactive); in the experiment with KM-20L2, 28.3 µM (inactive); in the experiment on SNB-19 it was 20.9 µM (inactive). Besides, the GI50 in the experiment with SNB-75 was 24.9 µM (inactive); with KM12, 27.5 µM (inactive); with HCT-116 it was 30.1 µM (inactive); in the experiment on SK-MEL-5 it was 27.8 µM (inactive); with NCI-H23, 22.2 µM (inactive); in the experiment with CCRF-CEM, 24.4 µM (inactive). Further, the GI50 in the experiment with A498 is 35.7 µM (inactive); with OVCAR-3, 24.4 µM (inactive); with COLO 205 it was 16.1 µM (inactive).

Turning to `O=C(N/C(=C\c1c(O)ccc2ccccc12)c1nc2ccccc2[nH]1)c1ccccc1`, the GI50 in the experiment on M14 is > 100 µM (inactive); in the experiment on OVCAR-5, > 100 µM (inactive); in the experiment with NCI-H460 it was > 100 µM (inactive); in the experiment on SNB-78 it was > 100 µM (inactive); in the experiment on KM-20L2 it was > 100 µM (inactive); in the experiment with SNB-19, 53.8 µM (inactive). Besides, the GI50 with SNB-75 was 18.8 µM (inactive); in the experiment on KM12 it was > 100 µM (inactive); with HCT-116, > 100 µM (inactive); in the experiment with SK-MEL-5 it was > 100 µM (inactive); in the experiment on NCI-H23, 87.1 µM (inactive); in the experiment on CCRF-CEM, > 100 µM (inactive). Besides, the figures for the GI50 in the experiment with A498, with OVCAR-3 and in the experiment on COLO 205 were 38.2 µM (inactive), > 100 µM (inactive) and > 100 µM (inactive), respectively.

Regarding `C/C(CC(=O)Nc1cccc(Cl)c1C)=N\N=C(N)N`, the GI50 in the experiment with M14 was > 100 µM (inactive); with OVCAR-5, > 100 µM (inactive); in the experiment on NCI-H460, > 100 µM (inactive); in the experiment with SNB-78, > 100 µM (inactive); with KM-20L2, 42.6 µM (inactive); in the experiment with SNB-19, > 100 µM (inactive). The GI50 with SNB-75, in the experiment with KM12, in the experiment with HCT-116, in the experiment with SK-MEL-5, in the experiment on NCI-H23 and in the experiment on CCRF-CEM was > 100 µM (inactive) in each case. The GI50 in the experiment on A498, in the experiment with OVCAR-3 and in the experiment with COLO 205 was > 100 µM (inactive) throughout.

In the case of `CN(C(=O)C12C3C4C1C1C2C3C41C#N)C(C)(C)C` (stereo not given), the GI50 with M14, with OVCAR-5, with NCI-H460, in the experiment with SNB-78, in the experiment on KM-20L2 and in the experiment with SNB-19 was > 100 µM (inactive) throughout. Also, the GI50 is 69.2 µM (inactive) with SNB-75; > 100 µM (inactive) in the experiment with KM12; > 100 µM (inactive) in the experiment with HCT-116; > 100 µM (inactive) in the experiment on SK-MEL-5; > 100 µM (inactive) in the experiment on NCI-H23; > 100 µM (inactive) with CCRF-CEM. For the same compound, the GI50 with A498, in the experiment with OVCAR-3 and in the experiment on COLO 205 was > 100 µM (inactive) throughout.

`CC1=NN(C(=O)c2ccccc2O)C(=O)/C1=C/c1ccco1`: the GI50 with M14 is 1.93 µM (inactive); with OVCAR-5 it was 9.18 µM (inactive); in the experiment with NCI-H460 it was 1.59 µM (inactive); with SNB-78 it was 22.6 µM (inactive); in the experiment with MDA-MB-231, 15.1 µM (inactive); in the experiment with KM-20L2 it was 15 µM (inactive). The GI50 is 7.55 µM (inactive) with SNB-19; 12.6 µM (inactive) in the experiment with BT-549; 3.02 µM (inactive) with SNB-75; 7.01 µM (inactive) with KM12; 2.23 µM (inactive) in the experiment on HCT-116; 1.36 µM (inactive) in the experiment on SK-MEL-5. Further, the GI50 in the experiment on NCI-H23 is 1.53 µM (inactive); in the experiment on NCI/ADR-RES it was 4.44 µM (inactive); in the experiment with MCF7, 4.27 µM (inactive); with CCRF-CEM, 1.61 µM (inactive); in the experiment with A498, 2.43 µM (inactive); with DU-145, 4.74 µM (inactive). Also, the results for the GI50 in the experiment on OVCAR-3 and with COLO 205 were 0.65 µM (active) and 10.5 µM (inactive), respectively.

As to `COc1cc(Cn2c3ccccc3c3cc(C)c4c(c32)C=CC(C)(CCC=C(C)C)O4)cc2c1[nH]c1ccccc12` (stereo not given) [CHRESTFOLINE C], the GI50 with M14, in the experiment with OVCAR-5, in the experiment on NCI-H460, in the experiment with SNB-78, in the experiment on KM-20L2 and with SNB-19 was > 100 µM (inactive) in each case. Moreover, the GI50 in the experiment with SNB-75, with KM12, in the experiment on HCT-116, in the experiment on SK-MEL-5, with NCI-H23 and in the experiment with CCRF-CEM was > 100 µM (inactive) throughout. In addition, the GI50 with A498, with OVCAR-3 and with COLO 205 was > 100 µM (inactive) throughout.
